Data: US20080226698A1 (priority 2007, published 2008)

Glass transition temperature of the amorphous form (DSC)	Structure (SMILES)	Tg of the amorphous form relative to normal storage temperature (normal storage temperature of 20° C. to 25° C.)
about −20 °C	CCN(CC)CC#CCOC(=O)C(O)(c1ccccc1)C1CCCCC1 (centres unmarked) [oxybutynin base, oxybutynin]	–
–	CN1[C@@H]2C[C@@H](OC(=O)[C@H](CO)c3ccccc3)C[C@H]1[C@@H]1O[C@@H]12 [scopolamine]	lower than the normal storage temperature
